Source: patent US11690804B2, “Targeted delivery of therapeutic agents to human adipocytes” (AptamiR Therapeutics, Inc., priority 2018, dated 2023)
Square brackets hold non-standard residues; d marks the D form. Peptide text beside a SMILES is read from it. dTrp(2-Me) = Cc1[nH]c2ccccc2c1C[C@@H](N)C(=O)O

Experiments:
[1] = test system: human subcutaneous adipocytes; test: Transport of green fluorescent Hexarelin into primary cultures of human subcutaneous adipocytes (fluorescence microscopy); type: cell-based; conditions: green fluorescent probe, primary culture
Excerpt: In vitro validation of HexamiRs targeted delivery of functional miRNAs: The ability of the HexamiRs to target and deliver ss-miRNA analogs to adipocytes will evaluated in a model of primary cultures of human subcutaneous adipocytes. The first experimental step was to confirm that Hexarelin is efficiently transported into human mature adipocytes, using an in vitro protocol of primary cultures of human subcutaneous adipocytes. To test this, hexarelin labeled with a green fluorescent probe was incubated with cultured adipocytes.

[2] = test system: MKR insulin-resistant mice; conditions: cited from earlier work
[3] = test system: human subcutaneous adipocytes; test: Transport of green fluorescent labeled fatty acids into primary cultures of human subcutaneous adipocytes (fluorescence microscopy); type: cell-based; conditions: green fluorescent probe, primary culture
Procedure: In vitro validation of AdipomiRs targeted delivery of functional miRNAs: The ability of the AdipomiRs to target and deliver ss-miRNA analogs to adipocytes was evaluated in a model of primary cultures of human subcutaneous adipocytes. The first experimental step was to confirm that fatty acids are efficiently transported into human mature adipocytes, using the inventor's in vitro protocol of primary cultures of human subcutaneous adipocytes. To test this, fatty acids such as palmitic and […] acids were labeled with a green fluorescent probe and incubated with cultured adipocytes.

SMILES | transport of labeled hexarelin into the cytoplasm of human adipocytes [1] | glucose and insulin intolerance [2] | plasma and liver triglycerides [2] | transport of labeled fatty acids by human adipocytes [3]
Cc1[nH]c2ccccc2c1C[C@@H](NC(=O)[C@@H](N)Cc1cnc[nH]1)C(=O)N[C@@H](C)C(=O)N[C@@H](Cc1c[nH]c2ccccc12)C(=O)N[C@H](Cc1ccccc1)C(=O)N[C@@H](CCCCN)C(N)=O [Hexarelin, His-D-2-Me-Trp-Ala-Trp-D-Phe-Lys-NH2] (H-H[dTrp(2-Me)]AW[dF]K-NH2) | very efficiently transported | significantly improved | decreased | 
CCCCCCCCCCCCCCCC(=O)O [palmitic acid, Palmitic Acid] |  |  |  | very efficiently transported
